# Values quoted from earlier work, collected in patent US12409131B2, “Transdermal delivery of dronabinol” (Pike Therapeutics USA, Inc., priority 2019, dated 2025).
# Columns and labels:
# [1] = in 96 hrs through human cadaver skin, U.S. Pat. No. 8,449,908
smiles,measurement,setting,value
"CCCCCc1cc(O)c2c(c1)OC(C)(C)[C@@H]1CCC(C)=C[C@@H]21 (relative stereo) [dronabinol, (6aR-trans)-6a,7,8,10a-tetrahydro-6,6,9-trimethyl-3-pentyl-6H-dibenzo[b,d]pyran-1-ol]",cumulative amount delivered,[1],10000 ng
same,Oral bioavailability,,10-20%
